Experimental data from US8129527B2, “Analogs of dehydrophenylahistins and their therapeutic use” (Nereus Pharmacuticals, Inc., priority 2006, dated 2012).
Values after ≈ are worked out from the molar mass of the structure shown. Read-outs that look alike come from different tables or passages of the source. Marks after values point to notes of the source that are not given here. Values belong to the compound of their own block, whether it stands above or below them.

Columns and labels:
HT-29 human colon tumor = experiment: HT-29 Human Colon Tumor Xenograft Model; format: in vivo; conditions: for Chemotherapeutic Agent Result TGI %: CPT-11 alone 100 ip qwx3
Description: Selected novel compounds were administered as monotherapy via the intraperitoneal (i.p.) route at the doses indicated for the individual study; for the combination studies the selected reference chemotherapy agents were injected 15-30 min prior to the compound.
Saline dilutions are used to achieve the injection concentrations used for the reference compounds.
Animals were implanted subcutaneously (s.c.) by trocar with fragments of HT-29 tumors harvested from s.c. growing tumors in nude mice hosts. When the tumor size reached 5 mm×5 mm (about 10-17 days) the animals were matched into treatment and control groups. Mice were weighed twice weekly and tumor measurements were obtained using calipers twice weekly, starting on Day 1. The tumor measurements were converted to estimated mg tumor weight using the formula (W^2×L)/2. When the estimated tumor weight of the control group reached an average of 1000 mg the mice were weighed, sacrificed and the tumor removed.

HT-29 human colon cells = experiment: Tumor cytotoxicity assay, resazurin fluorescence, 48 h (Example 6); format: cell-based; conditions: for EC50: Homo sapiens; for cytotoxic activity against HT-29 cells: in words
Trichophyton rubrum = experiment: Antifungal susceptibility testing, broth dilution (MIC/MFC); format: cell-based; conditions: Trichophyton species
Description: (§1) Specifically, disclosed compounds were evaluated alongside commercially available microtubulin inhibitors as well as recognized antifungal agents.
(§2) Microorganisms against which these compounds were tested included: Candida albicans, Candida glabrata, Aspergillus fumigatus, Trichophyton rubrum, Trichophyton mentagrophytes, Epidermophyton floccosum. With the exception of Candida glabrata (one isolate), two isolates of each species were tested.
(§3) The minimum lethal concentration (MLC) was determined by plating […] from the MIC concentration and each concentration above the MIC. […] When a MIC was obtained, a minimum fungicidal concentration (MFC) was determined to assess the fungistatic/fungicidal nature of the compound.

Candida albicans = experiment: Antifungal susceptibility testing, broth dilution (MIC/MFC); format: cell-based
Description: as §1, §2, §3

Candida glabrata = experiment: as above; format: cell-based; conditions: C. glabrata
Description: as §1, §2, §3

[1] = system: MES-SA/Dx5 (Taxol Resistant) human uterine sarcoma; experiment: Drug resistant cell line pair, cytotoxicity (Example 10B); format: cell-based; conditions: vs MES-SA
Description: 1) Human Uterine Sarcoma Tumor Cell Line Pair: MES-SA (Taxol Sensitive) and MES-SA/Dx5 (Taxol Resistant).

Aspergillus fumigatus = experiment: Antifungal susceptibility testing, broth dilution (MIC/MFC); format: cell-based; conditions: Aspergillus fumigatus, A. fumigatus isolate #1; read-out: MIC
Description: as §1, §2, §3

[2] = Colon HT-29 (3 studies), CPT-11 Days 1, 8, 15 alone

SMILES: CCc1c2c(nc3ccc(OC(=O)N4CCC(N5CCCCC5)CC4)cc13)-c1cc3c(c(=O)n1C2)COC(=O)[C@]3(O)CC [CPT-11, Irinotecan, reference compound]
- Tumor Growth Inhibition (%) Reference Agent (HT-29 human colon tumor; [2]): 37 ± 3%
- Tumor Regression (#/total) Reference Agent (HT-29 human colon tumor; [2]): 0/30
- Chemotherapeutic Agent Result TGI % (HT-29 human colon tumor; Study 2139): 32.7%
- Chemotherapeutic Agent Result TGI % (HT-29 human colon tumor; Study 2164): 39* %
- Chemotherapeutic Agent Result TGI % (HT-29 human colon tumor; Study 2288): 36.5* %
- TGI vs NCI criterion (HT-29 human colon tumor; study of KPU-2, KPU-35 and t-butyl-phenylahistin +/- CPT-11): did not reach this level

SMILES: COc1cc(/C=c2\[nH]c(=O)/c(=C/c3nc[nH]c3C(C)(C)C)[nH]c2=O)cc(OC)c1OC [KPU-11, tBu-ΔPLH-3,4,5-triOMe]
- EC50 (HT-29 human colon cells; HT-29, read-out: EC50 HT-29, Table 3, cells printed in μM): > 20 µM
- cytotoxic activity against HT-29 cells (HT-29 human colon cells): also showed activity
- antifungal potency compared with griseofulvin (Trichophyton rubrum): equivalent in potency or in some cases more potent than griseofulvin

SMILES: COc1ccc(/C=c2\[nH]c(=O)/c(=C/c3nc[nH]c3C(C)(C)C)[nH]c2=O)c(OC)c1OC [KPU-17, tBu-ΔPLH-2,3,4-triOMe]
- EC50 (HT-29 human colon cells; HT-29, Table 3, read-out: EC50 (nM) HT-29): 4.06 µM
- cytotoxic activity against HT-29 cells (HT-29 human colon cells): also showed activity
- antifungal potency compared with griseofulvin (Trichophyton rubrum): equivalent in potency or in some cases more potent than griseofulvin

- melting point: 170 to 172 °C
SMILES: CC(C)(C)c1ocnc1/C=c1\[nH]c(=O)/c(=C/c2cccc(Br)c2)[nH]c1=O [KPU-212, 3-{(Z)-1-[5-(tert-Butyl)-1H-4-oxazolyl]methylidene}-6-[(Z)-1-(3-bromophenyl)methlidene]-2,5-piperazinedione]

- melting point: 170 to 172 °C
SMILES: CC(C)(C)c1ocnc1/C=c1\[nH]c(=O)/c(=C/c2ccccc2F)[nH]c1=O [KPU-214, 3-{(Z)-1-[5-(tert-Butyl)-1H-4-oxazolyl]methylidene}-6-[(Z)-1-(2-fluorophenyl)methlidene]-2,5-piperazinedione]

- melting point: 149 to 151 °C
SMILES: CC(C)(C)c1ocnc1/C=c1\[nH]c(=O)/c(=C/c2ccccc2[N+](=O)[O-])[nH]c1=O [KPU-215, 3-{(Z)-1-[5-(tert-Butyl)-1H-4-oxazolyl]methylidene}-6-[(Z)-1-(2-nitrophenyl)methlidene]-2,5-piperazinedione]

- melting point: 187 to 189 °C
SMILES: CC(C)(C)c1ocnc1/C=c1\[nH]c(=O)/c(=C/c2cccc(OC(F)(F)F)c2)[nH]c1=O [KPU-216, 3-{(Z)-1-[5-(tert-Butyl)-1H-4-oxazolyl]methylidene}-6-[(Z)-1-(3-trifluoromethoxyphenyl)methlidene]-2,5-piperazinedione]

- melting point: 164 to 166 °C
SMILES: CC(C)(C)c1ocnc1/C=c1\[nH]c(=O)/c(=C/c2ccoc2)[nH]c1=O [KPU-217, 3-{(Z)-1-[5-(tert-Butyl)-1H-4-oxazolyl]methylidene}-6-[(Z)-1-(3-furyl)methlidene]-2,5-piperazinedione]

- melting point: 142 to 144 °C
SMILES: Cc1ccsc1/C=c1\[nH]c(=O)/c(=C/c2ncoc2C(C)(C)C)[nH]c1=O [KPU-219, 3-{(Z)-1-[5-(tert-Butyl)-1H-4-oxazolyl]methylidene}-6-[(Z)-1-(3-methyl-2-thienyl)methlidene]-2,5-piperazinedione]

- melting point: 151 to 153 °C
SMILES: COc1ccccc1/C=c1\[nH]c(=O)/c(=C/c2ncoc2C(C)(C)C)[nH]c1=O [KPU-224, 3-{(Z)-1-[5-(tert-Butyl)-1H-4-oxazolyl]methylidene}-6-[(Z)-1-(2-methoxyphenyl)methlidene]-2,5-piperazinedione]

- melting point: 155 to 157 °C
SMILES: CC(C)(C)c1ocnc1/C=c1\[nH]c(=O)/c(=C/c2ccsc2)[nH]c1=O [KPU-226, 3-{(Z)-1-[5-(tert-Butyl)-1H-4-oxazolyl]methylidene}-6-[(Z)-1-(3-thienyl)methlidene]-2,5-piperazinedione]

- melting point: 180 to 182 °C
SMILES: CC(C)(C)c1ocnc1/C=c1\[nH]c(=O)/c(=C/CCc2ccccc2)[nH]c1=O [KPU-228, 3-{(Z)-1-[5-(tert-Butyl)-1H-4-oxazolyl]methylidene}-6-[(Z)-1-(phenylpropyl)methlidene]-2,5-piperazinedione]

- melting point: 201 to 203 °C
SMILES: CCOc1ccc2ccccc2c1/C=c1\[nH]c(=O)/c(=C/c2ncoc2C(C)(C)C)[nH]c1=O [KPU-229, 3-{(Z)-1-[5-(tert-Butyl)-1H-4-oxazolyl]methylidene}-6-[(Z)-1-(2-ethoxy-1-naphthyl)methlidene]-2,5-piperazinedione]

- melting point: 234 to 236 °C
SMILES: COc1ccc2ccccc2c1/C=c1\[nH]c(=O)/c(=C/c2ncoc2C(C)(C)C)[nH]c1=O [KPU-230, 3-{(Z)-1-[5-(tert-Butyl)-1H-4-oxazolyl]methylidene}-6-[(Z)-1-(2-methoxy-1-naphthyl)methlidene]-2,5-piperazinedione]

- melting point: 274 to 276 °C
SMILES: CC(C)(C)c1ocnc1/C=c1\[nH]c(=O)/c(=C/c2c3ccccc3cc3ccccc23)[nH]c1=O [KPU-231, 3-{(Z)-1-[5-(tert-Butyl)-1H-4-oxazolyl]methylidene}-6-[(Z)-1-(9-anthryl)methlidene]-2,5-piperazinedione]

- melting point: 212 to 214 °C
SMILES: CC(C)(C)c1ocnc1/C=c1\[nH]c(=O)/c(=C/c2ccc(-c3cccs3)s2)[nH]c1=O [KPU-234, 3-{(Z)-1-[5-(tert-Butyl)-1H-4-oxazolyl]methylidene}-6-[(Z)-1-(2,2′-bithienyl)methlidene]-2,5-piperazinedsione]

- melting point: 185 to 187 °C
SMILES: CC(C)(C)c1ocnc1/C=c1\[nH]c(=O)/c(=C/c2cc(F)cc(F)c2F)[nH]c1=O [KPU-235, 3-{(Z)-1-[5-(tert-Butyl)-1H-4-oxazolyl]methylidene}-6-[(Z)-1-(2,3,5-trifluorophenyl)methylidene]-2,5-piperazinedione]

- melting point: 194 to 196 °C
SMILES: CC(C)(C)c1ocnc1/C=c1\[nH]c(=O)/c(=C/c2c(F)c(F)cc(F)c2F)[nH]c1=O [KPU-236, 3-{(Z)-1-[5-(tert-Butyl)-1H-4-oxazolyl]methylidene}-6-[(Z)-1-(2,3,5,6-tetrafluorophenyl)methlidene]-2,5-piperazinedione]

- melting point: 212 to 214 °C
SMILES: CC(C)(C)c1ocnc1/C=c1\[nH]c(=O)/c(=C/c2c(F)ccc(F)c2F)[nH]c1=O [KPU-238, 3-{(Z)-1-[5-(tert-Butyl)-1H-4-oxazolyl]methylidene}-6-[(Z)-1-(2,36-trifluorophenyl)methlidene]-2,5-piperazinedione]

- melting point: 133 to 135 °C
SMILES: CC(C)(C)c1ocnc1/C=c1\[nH]c(=O)/c(=C/c2cn(S(=O)(=O)c3ccccc3)c3ccccc23)[nH]c1=O [KPU-239, 3-{(Z)-1-[5-(tert-Butyl)-1H-4-oxazolyl]methylidene}-6-[(Z)-1-(phenylsulfonyl-3-indolyl)methlidene]-2,5-piperazinedione]

- MIC (Candida albicans; C. albicans 10231): 0.5 µg/mL (≈ 0.541 µM)
- MIC (Candida albicans; C. albicans 90028): 0.5 µg/mL (≈ 0.541 µM)
- MIC (Candida glabrata): 1 µg/mL (≈ 1.08 µM)
SMILES: C[C@@H]1[C@H](O)[C@@H](C)/C=C/C=C/C=C/C=C/C=C/C=C/C=C/[C@H](O[C@@H]2O[C@H](C)[C@@H](O)[C@H](N)[C@@H]2O)C[C@@H]2O[C@](O)(C[C@@H](O)C[C@@H](O)[C@H](O)CC[C@@H](O)C[C@@H](O)CC(=O)O[C@H]1C)C[C@H](O)[C@H]2C(=O)O [amphotericin B, Amphotericin B]
- MFC (Candida albicans; C. albicans 10231): 0.5 µg/mL (≈ 0.541 µM)
- MFC (Candida albicans; C. albicans 90028): 0.5 µg/mL (≈ 0.541 µM)
- MFC (Candida glabrata): 1 µg/mL (≈ 1.08 µM)

SMILES: CCCCNC(=O)n1c(NC(=O)OC)nc2ccccc21 [benomyl, Benomyl]
- MFC (Candida albicans; Candida albicans, C. albicans 90028, read-out: MFC): > 512 µg/mL
- MIC (Candida albicans; Candida albicans, C. albicans 90028, read-out: MIC): 64 µg/mL (≈ 220 µM)
- MFC (Candida glabrata; Nakaseomyces glabratus, read-out: MFC): > 512 µg/mL
- MIC (Candida glabrata; Nakaseomyces glabratus, read-out: MIC): 64 µg/mL (≈ 220 µM)

SMILES: COc1cccc2c1C(=O)c1c(O)c3c(c(O)c1C2=O)C[C@@](O)(C(=O)CO)C[C@@H]3O[C@H]1C[C@H](N)[C@H](O)[C@H](C)O1 [doxorubicin, Doxorubicin, reference compound]
- reduced susceptibility of the MES-SA/DX5 cell line [1]: 34 fold

SMILES: COc1cc([C@@H]2c3cc4c(cc3[C@@H](O[C@@H]3O[C@@H]5CO[C@@H](C)O[C@H]5[C@H](O)[C@H]3O)[C@H]3COC(=O)[C@H]23)OCO4)cc(OC)c1O [etoposide, Etoposide, reference compound]
- reduced susceptibility of the MES-SA/DX5 cell line [1]: 60 fold

- MIC (Aspergillus fumigatus): 1 µg/mL (≈ 1.42 µM)
SMILES: CCC(C)n1ncn(-c2ccc(N3CCN(c4ccc(OCC5COC(Cn6cncn6)(c6ccc(Cl)cc6Cl)O5)cc4)CC3)cc2)c1=O (stereo not shown) [itraconazole, Itraconazole, reference compound]

SMILES: CC(C)(C)c1[nH]cnc1/C=C1\NC(=O)[C@H](Cc2ccccc2)NC1=O [t-butylphenylahistin]
- antifungal potency compared with griseofulvin (Trichophyton rubrum): equivalent in potency or in some cases more potent than griseofulvin
